Measured values as given in patent publication EP0933350A1, “Tricyclic retinoids, methods for their production and use” (LIGAND PHARMACEUTICALS INCORPORATED, priority 1994, dated 1996).

Experiments:
RARα [1] = molecular target: T1, RARα (Homo sapiens, UniProt P10276); test: co-transfection assay (RAR/RXR agonist activity, luciferase reporter in CV-1 cells); type: cell-based; conditions: read-out: RARα Pot
T1 sequence (P10276 1-462): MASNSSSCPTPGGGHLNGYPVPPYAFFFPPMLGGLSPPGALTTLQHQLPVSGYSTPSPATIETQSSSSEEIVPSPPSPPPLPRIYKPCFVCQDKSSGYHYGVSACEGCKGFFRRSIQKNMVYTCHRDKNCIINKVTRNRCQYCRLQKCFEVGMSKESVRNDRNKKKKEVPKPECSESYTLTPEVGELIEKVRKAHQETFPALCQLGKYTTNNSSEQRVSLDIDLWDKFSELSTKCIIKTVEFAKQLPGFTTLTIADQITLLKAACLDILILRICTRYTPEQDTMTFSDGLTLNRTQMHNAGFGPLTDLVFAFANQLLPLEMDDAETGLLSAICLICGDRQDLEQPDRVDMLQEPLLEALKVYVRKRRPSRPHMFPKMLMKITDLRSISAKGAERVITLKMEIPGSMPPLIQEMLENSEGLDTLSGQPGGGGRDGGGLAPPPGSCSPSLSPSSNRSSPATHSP

RARβ [2] = molecular target: T2, RARβ (Homo sapiens, UniProt P10826); test: as above; type: cell-based; conditions: potency = EC50, agonist, 40 hours, read-out: RARβ Pot
T2 sequence (P10826 1-448 isoform P10826-2): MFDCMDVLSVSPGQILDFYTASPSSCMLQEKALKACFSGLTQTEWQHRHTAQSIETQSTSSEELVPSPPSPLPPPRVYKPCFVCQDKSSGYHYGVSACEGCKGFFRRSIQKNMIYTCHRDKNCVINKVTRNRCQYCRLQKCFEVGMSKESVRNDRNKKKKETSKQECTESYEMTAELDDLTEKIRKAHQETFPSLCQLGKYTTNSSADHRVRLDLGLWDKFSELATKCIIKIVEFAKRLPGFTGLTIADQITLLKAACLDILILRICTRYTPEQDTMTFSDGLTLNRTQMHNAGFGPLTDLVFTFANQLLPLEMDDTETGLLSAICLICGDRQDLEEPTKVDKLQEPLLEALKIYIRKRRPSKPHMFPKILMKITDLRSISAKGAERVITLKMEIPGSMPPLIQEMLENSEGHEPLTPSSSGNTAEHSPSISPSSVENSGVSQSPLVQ

RARγ [3] = molecular target: T3, RARγ (Homo sapiens, UniProt P13631); test: as above; type: cell-based; conditions: potency = EC50, agonist, 40 hours, read-out: RARγ Pot
T3 sequence (P13631 1-454): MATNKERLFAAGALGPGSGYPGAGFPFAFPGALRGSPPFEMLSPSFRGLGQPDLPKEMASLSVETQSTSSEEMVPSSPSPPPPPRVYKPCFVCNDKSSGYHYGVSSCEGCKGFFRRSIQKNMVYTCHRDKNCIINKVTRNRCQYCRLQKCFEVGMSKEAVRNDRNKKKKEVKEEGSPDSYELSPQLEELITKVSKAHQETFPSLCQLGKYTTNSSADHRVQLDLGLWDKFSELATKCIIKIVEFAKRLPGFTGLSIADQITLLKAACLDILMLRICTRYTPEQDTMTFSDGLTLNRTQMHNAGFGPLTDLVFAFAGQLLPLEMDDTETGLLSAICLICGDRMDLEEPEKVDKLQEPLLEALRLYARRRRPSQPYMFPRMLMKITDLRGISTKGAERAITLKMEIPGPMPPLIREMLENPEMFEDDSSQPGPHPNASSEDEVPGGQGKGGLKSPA

RXRα [4] = molecular target: T4, RXRα (Homo sapiens, UniProt P19793); test: as above; type: cell-based; conditions: read-out: RXRα Pot
T4 sequence (P19793 1-462): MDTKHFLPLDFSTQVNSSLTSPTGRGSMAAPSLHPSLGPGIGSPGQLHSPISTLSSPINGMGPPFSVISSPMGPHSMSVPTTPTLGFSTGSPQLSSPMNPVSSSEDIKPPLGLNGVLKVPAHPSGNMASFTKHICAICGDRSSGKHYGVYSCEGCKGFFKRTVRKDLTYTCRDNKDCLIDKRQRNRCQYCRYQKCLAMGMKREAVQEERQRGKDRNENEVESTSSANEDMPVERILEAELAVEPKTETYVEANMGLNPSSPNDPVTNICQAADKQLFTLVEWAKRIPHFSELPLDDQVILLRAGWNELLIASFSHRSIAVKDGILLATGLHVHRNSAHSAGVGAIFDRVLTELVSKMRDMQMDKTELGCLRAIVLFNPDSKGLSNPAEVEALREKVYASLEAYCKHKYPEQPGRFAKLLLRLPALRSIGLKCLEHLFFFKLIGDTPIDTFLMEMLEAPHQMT

RXRβ [5] = molecular target: T5, RXRβ (Mus musculus, UniProt P28704); test: as above; type: cell-based; conditions: read-out: RXRβ Pot
T5 sequence (P28704 1-520): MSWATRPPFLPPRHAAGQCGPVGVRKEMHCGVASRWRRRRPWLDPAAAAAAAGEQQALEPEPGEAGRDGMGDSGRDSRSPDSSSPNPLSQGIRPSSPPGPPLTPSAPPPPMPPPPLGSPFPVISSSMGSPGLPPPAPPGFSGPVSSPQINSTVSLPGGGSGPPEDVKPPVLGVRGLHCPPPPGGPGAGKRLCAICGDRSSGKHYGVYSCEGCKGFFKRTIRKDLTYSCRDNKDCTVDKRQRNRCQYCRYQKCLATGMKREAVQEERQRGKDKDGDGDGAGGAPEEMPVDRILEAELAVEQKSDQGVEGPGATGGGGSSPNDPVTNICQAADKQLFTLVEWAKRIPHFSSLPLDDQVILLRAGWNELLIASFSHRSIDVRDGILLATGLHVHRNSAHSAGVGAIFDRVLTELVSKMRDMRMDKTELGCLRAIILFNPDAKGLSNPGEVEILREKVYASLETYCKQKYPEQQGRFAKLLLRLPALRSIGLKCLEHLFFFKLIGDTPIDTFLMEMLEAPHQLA

RXRγ [6] = molecular target: T6, RXRγ (Mus musculus, UniProt P28705); test: as above; type: cell-based; conditions: read-out: RXRγ Pot
T6 sequence (P28705 1-463): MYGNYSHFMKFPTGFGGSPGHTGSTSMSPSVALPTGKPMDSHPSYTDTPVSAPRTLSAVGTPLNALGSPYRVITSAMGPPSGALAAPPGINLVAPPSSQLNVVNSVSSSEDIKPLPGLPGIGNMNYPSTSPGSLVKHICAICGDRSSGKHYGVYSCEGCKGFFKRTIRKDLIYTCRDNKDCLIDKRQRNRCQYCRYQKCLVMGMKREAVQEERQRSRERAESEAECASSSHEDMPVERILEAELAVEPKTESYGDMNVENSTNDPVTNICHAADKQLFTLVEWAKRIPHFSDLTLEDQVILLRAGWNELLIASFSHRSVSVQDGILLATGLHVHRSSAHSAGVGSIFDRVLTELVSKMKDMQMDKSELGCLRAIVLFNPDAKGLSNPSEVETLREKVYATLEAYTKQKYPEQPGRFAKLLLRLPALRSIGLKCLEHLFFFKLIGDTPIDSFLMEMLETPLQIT

RARα [7] = molecular target: T1, RARα; test: competitive binding of tritiated retinoids to retinoid receptors; conditions: competition with tritiated retinoid, Cheng-Prussof equation
RARβ [8] = molecular target: T7, RARβ (Homo sapiens, UniProt P10826); test: as above; conditions: competition with tritiated retinoid, Cheng-Prussof equation
T7 sequence (P10826 1-455): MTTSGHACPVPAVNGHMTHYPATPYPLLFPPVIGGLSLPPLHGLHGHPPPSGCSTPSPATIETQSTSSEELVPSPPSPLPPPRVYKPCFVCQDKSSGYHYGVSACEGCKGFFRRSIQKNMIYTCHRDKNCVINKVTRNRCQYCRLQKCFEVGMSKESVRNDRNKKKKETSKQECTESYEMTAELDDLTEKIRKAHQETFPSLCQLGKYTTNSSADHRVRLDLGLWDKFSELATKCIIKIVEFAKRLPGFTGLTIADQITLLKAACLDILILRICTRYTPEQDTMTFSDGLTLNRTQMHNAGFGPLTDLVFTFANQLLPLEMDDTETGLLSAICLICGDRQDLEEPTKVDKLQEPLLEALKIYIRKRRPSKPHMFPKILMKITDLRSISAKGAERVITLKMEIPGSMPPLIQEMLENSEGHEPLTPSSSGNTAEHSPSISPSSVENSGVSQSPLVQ

RARγ [9] = molecular target: T3, RARγ; test: as above; conditions: competition with tritiated retinoid, Cheng-Prussof equation
RXRα [10] = molecular target: T4, RXRα; test: as above; conditions: competition with tritiated retinoid, Cheng-Prussof equation
RXRβ [11] = molecular target: T5, RXRβ; test: as above; conditions: competition with tritiated retinoid, Cheng-Prussof equation
RXRγ [12] = molecular target: T6, RXRγ; test: as above; conditions: competition with tritiated retinoid, Cheng-Prussof equation
RPMI 8226 cell line = test: viability (tetrazolium dye, mitochondrial function); type: cell-based; conditions: Homo sapiens, 96 hours, read-out: MTS IC50
ME 180 cell line = test: as above; type: cell-based; conditions: Homo sapiens, 96 hours, read-out: MTS IC50
AML-193 cell line = test: as above; type: cell-based; conditions: Homo sapiens, 96 hours, read-out: MTS IC50

Compound | EC50 (RARα [1]) | EC50 (RARβ [2]) | EC50 (RARγ [3]) | EC50 (RXRα [4]) | EC50 (RXRβ [5]) | EC50 (RXRγ [6]) | Kd (RARα [7]) | Kd (RARβ [8]) | Kd (RARγ [9]) | Kd (RXRα [10]) | Kd (RXRβ [11]) | Kd (RXRγ [12]) | IC50 (RPMI 8226 cell line) | IC50 (ME 180 cell line) | IC50 (AML-193 cell line)
CC(/C=C/C=C1/CCC(C)(C)c2cc3c(cc21)C(C)(C)CCC3(C)C)=C\C(=O)O [Compound 106b, (2E,4E)-3-Methyl-6-[(Z)-1,2,3,4,5,6,7,8-hexahydro-4,4,5,5,8,8-hexamethyl-2H-anthracen-1-ylidene]hexa-2,4-dienoic acid] | 0.084 µM | 0.02 µM | 0.014 µM | > 10 µM | 0.052 µM | 0.127 µM | – | – | – | – | – | – | – | – | –
CCN1CC\C(=C/C=C/C(C)=C/C(=O)O)c2cc3c(cc21)C(C)(C)CCC3(C)C [Compound 147b, (2E,4E)-3-methyl-6-[(E)1-ethyl-6,6,9,9-tetramethyl-2,3,6,7,8,9-hexahydro-1H-benzo[g]quinolin-4-ylidene]hexa-2,4-dienoic acid] | 0.035 µM | 0.004 µM | 0.001 µM | – | 0.579 µM | 1.47 µM | 0.006 µM | 0.004 µM | 0.008 µM | 0.433 µM | 0.548 µM | 0.724 µM | – | – | –
CC(/C=C/C(=O)N1CCc2cc3c(cc21)C(C)(C)CCC3(C)C)=C\C(=O)O [Compound 141b, (2E,4E)-3-Methyl-6-oxo-6-[(2,3,5,6,7,8-hexahydro-5,5,8,8-tetramethyl)benzo-[f]-indol-1-yl]hexa-2,4-dienoic acid] | 0.863 µM | 0.032 µM | 0.012 µM | > 10 µM | > 10 µM | 2.93 µM | – | – | – | – | – | – | – | – | –
CC(/C=C/CC1CCCc2cc3c(cc21)C(C)(C)CCC3(C)C)=C\C(=O)O (racemic) [Compound 124b, (2E,4E)-3-Methyl-6-(1,2,3,4,5,6,7,8-octahydro-5,5,8,8-tetramethylanthracen-1-yl)hexa-2,4-dienoic acid] | 0.101 µM | 0.033 µM | 0.094 µM | 0.038 µM | 0.037 µM | 0.026 µM | – | – | – | – | – | – | – | – | –
CC(/C=C/C=C1\CCc2c1ccc1c2C(C)(C)CCC1(C)C)=C\C(=O)O [Compound 135b, (2E,4E)-3-Methyl-6-[(E)-2,3,6,7,8,9-hexahydro-6,6,9,9-tetramethyl-1H-cyclopenta[a]naphthalen-3-ylidene]hexa-2,4-dienoic acid] | 1.17 µM | 0.053 µM | 0.047 µM | 2.78 µM | 1.98 µM | 2.53 µM | – | – | – | – | – | – | – | – | –
CC(/C=C/CN1CCCc2c1ccc1c2C(C)(C)CCC1(C)C)=C\C(=O)O [Compound 143b, (2E,4E)-3-Methyl-6-(1,2,3,4,7,8,9,10-octahydro-7,7,10,10-tetramethylbenzo[f]quinolin-4-yl)hexa-2,4-dienoic acid] | > 10 µM | 0.466 µM | 1.88 µM | 0.393 µM | 0.472 µM | 0.247 µM | – | – | – | – | – | – | – | – | –
CC1(C)CCC(C)(C)c2cc3c(cc21)CCC/C3=N\Nc1ccc(C(=O)O)cc1 [Compound 152b, E-4-[N'-(5,5,8,8-tetramethyl-3,4,5,6,7,8-hexahydro-2H-anthracen-1-ylidene)-hydrazino]benzoic acid] | 0.651 µM | 0.008 µM | 0.032 µM | > 10 µM | > 10 µM | > 10 µM | – | – | – | – | – | – | – | – | –
CC1=C(/C=C/C(C)=C/C=C/C(C)=C/C(=O)O)C(C)(C)CCC1 [ATRA, all-trans retinoic acid, reference compound] | – | – | – | – | – | – | – | – | – | – | – | – | 0.756 µM | 0.89 µM | 1 µM
